Reference: patent publication US10278971B2, “Fluorocyclopentenylcytosine methods of use” (Rexahn Pharmaceuticals, Inc., priority 2015, dated 2019)

What was measured:
PCFT = PCFT mediated transport of radiolabeled MTX; type: cell-based, human; settings: CEM cells, 24 hr; RX-3117 29.6 μM; DAC positive control
Text: In this study, the following cell lines were used: (1) CCRF-CEM cells and its MTX resistant variant CEM-MTX, characterized by a deficiency of the reduced folate carrier (RFC) (Jansen G., et al., JBC 273 (1998) 30189-30198). The PCFT gene in CEM cells is highly methylated. (Gonen N., et al., BBRC 376 (2008) 787-92.); (2) CEM cells cultured in RPMI medium with 10% fetal bovine serum (FBS); and (3) A549 and SW1573 non-small cell lung cancer (NSCLC) and A2780 ovarian cancer cell lines cultured in DMEM medium with 10% FBS.
MTX transport was measured using radiolabeled MTX in CEM wild type and CEM-MTX cell lines. CEM cells have a high RFC activity. CEM-MTX are completely deficient in RFC-mediated transport. CEM cells have a highly methylated PCFT transporter and a very low PCFT mediated transport (Gonen N., et al., BBRC 376 (2008) 787-92). MTX transport at pH 7.4 is predominantly RFC mediated and less than 2% by PCFT. Folic acid was used to inhibit PCFT mediated transport. […] CEM and CEM-MTX cells were exposed to 29.6 μM RX-3117 and to 0, 19 μM aza-CdR as a positive control. MTX transport was measured after 24 hr to the drugs in a 3 minutes uptake assay using 2 μM [3′,5,′7-3H]-MTX.

DNMT1 mRNA = assay: DNMT1 RNA expression by real-time PCR; type: cell-based, human
Method: DNMT1 protein expression was measured by Western Blotting after exposure to RX-3117 for 24 or 48 hr. DNMT1 RNA expression was measured by real-time PCR after 24 and 48 hr exposure to RX-3117. DNMT enzyme activity was measured in isolated nuclei after exposure 1 μM RX-3117 or 5 μM aza-CdR using a DNA methyltransferase assay kit provided by EpiGentek using the ability of a CpG dinding domain to bind to methylated DNA. In A549 cells the effect of 5 μM RX-3117 on overall methylation was measured with a specific antibody against 5-methyl-cytosine. Bands on Western blots were visualized using appropriate InfraRedDye using an Odyssey InfraRed imager.

SW1573 = settings: as reported in Peters et al. 2013; cited from earlier work
H460 = assay: Cell cycle distribution by flow cytometry (PI); type: cell-based, human; settings: H460, 1 μM, 24 hour exposure
Method: The effect of RX-3117 on cell cycle regulation and cell death in human non-small cell lung cancer (NSCLC) cell lines A549 (adenocarcinoma), SW1573 (alveolar carcinoma) and SW1573/G- (SW1573 cell line resistant to gemcitabine) and H460 (large cell carcinoma) was assessed. The A549 and H460 cell lines were obtained from American Type Culture Collection (Manassas, Va., USA). The SW1573 cell line, obtained from Dr. Johan van Rijn (see Keiser et al., Cancer Research, 49:2988-2993 (1989)), also served as the parental cell line for SW1573/G-. A549, SW1573, and SW1573/G- and H460 were kept in exponential growth in T25 flasks (Greiner Bio-One GmbH, Frickenhausen, Germany) and cultured in Dulbecco's minimal essential medium (DMEM) or RPMI 1640 (A549) supplemented with 10% heat-inactivated fetal bovine serum (FBS) 1% streptomycin and penicillin 20 mM HEPES and maintained in 37° C. water saturated atmospheres of 5% CO2. For the cell cycle distribution, 1.5×10^5 cells were seeded in a T25 flask (Greiner Bio-One GmbH) and cultured for 72 hours after which 1 μM of RX-3117 was added and incubated for 24 hours. The cells were then harvested. After the treatment, the medium was collected in a 15 ml tube (Greiner Bio-One GmbH). […] The cells stained with the PI solution were analyzed by FACSCalibur™ (BD Biosciences, Mount View, Calif., USA). Data was analyzed with CellQuest™ Pro software.

Nc1ccn([C@@H]2C(F)=C(CO)[C@@H](O)[C@H]2O)c(=O)n1 [RX-3117, 4-amino-1-((1S,4R,5S)-2-fluoro-4,5-dihydroxy-3-hydroxymethyl-cyclopent-2-enyl)-1H-pyrimidin-2-one]
increase of PCFT mediated transport of MTX (PCFT): 4 fold | DNMT1 mRNA (DNMT1 mRNA; A549 and SW1573, 24 hours exposure): not affected | DNMT1 mRNA (DNMT1 mRNA; A549 and SW1573, 48 hr): affected moderately | IC50 (SW1573): 13.7 µM | accumulation of cells in the G1 phase (H460): induced accumulation | increased accumulation of cells in the G1 phase (H460): 20-40%
